Results taken from patent US7166688B1, “Chelation compositions” (LidoChem, Inc., priority 2000, dated 2007).

How the values were obtained:
[1] = Manganese chelation, clear solution / precipitate test; format: physicochemical; conditions: 10 ml manganese nitrate solution in 25 ml water, 30 ml solution, pH 6, 1 gram potassium phosphate
Procedure: In 25 ml of water 10 ml of a manganese nitrate solution was added. Once the manganese nitrate was in solution, 30 ml of the N,N-diethanolsuccinamide amino ethanol solution produced in Example 17 was added to the mixture and the pH of the blend was adjusted to 6. Then 1 gram of potassium phosphate was added to the mixture.
A five percent chelated manganese solution was prepared by blending 18 ml of water with 58 grams of a (17% Mn) manganese nitrate solution. Once the manganese nitrate was in solution, 82 grams of the compound produced in Example 10 was added. […] This chelated manganese solution is suitable for blending with phosphorus fertilizers.

[2] = Calcium chelation, clear solution / precipitate test; format: physicochemical
Procedure: In a preliminary study, 2 grams of calcium chloride dihydrate were added to 200 ml of water and mechanically stirred. Then 20 ml of the diethanolsuccinamide amino ethanol solution produced in example 17 was added to the blend.
In another flask 2 grams of calcium chloride dihydrate were added to 200 ml of water and the pH was adjusted to 9. Almost immediately calcium hydroxide began to precipitate.

[3] = Copper chelation, clear solution / precipitate test; format: physicochemical; conditions: 1 gram copper sulfate in 250 ml water, 10 ml solution, pH 8.4, 1 gram potassium phosphate
Procedure: A five percent chelated copper solution was prepared by blending 19 grams of basic copper sulfate in 100 ml of water. Concentrated HCl was added to solubilize the copper. Once in solution, 71 grams of the compound produced in Example 10 was added. […] This chelated copper solution is suitable for blending with phosphorus fertilizers.
In 250 ml of water 1 gram of copper sulfate was added and mechanically stirred. To this solution, 10 ml of the diethanolsuccinamide-amino ethanol solution produced in Example 17 was added. The pH of the blend was adjusted to 8.4 and 1 gram of potassium phosphate was added the mixture.
In another flask, 1 gram of copper sulfate was added to 250 ml of water and mechanically blended. Then, 1 gram of potassium phosphate was added to the blend. The pH of the solution was adjusted with potassium hydroxide. Immediately a powder solid was formed and precipitated. The hydroxide and phosphate salts of copper were formed.
In 400 ml of water, 1 gram of copper sulfate was added and 10 ml of the product from example 28 were added. With mechanical stirring, 20 grams of monopotassium phosphate were added to the mix. The pH of the solution was then adjusted to 2 with HCl. The pH of the solution was then gradually raised with the addition of Monoethanolamine to a pH of 9.
Two grams of basic copper sulfate were added to 200 ml of water. […]

[4] = Iron chelation, clear solution / precipitate test; format: physicochemical; conditions: 20 ml 1.8M ferric nitrate in 25 ml water, 30 ml solution, pH 9.2, 1 gram potassium phosphate
Procedure: A five percent chelated iron solution was prepared by blending 18 ml of water with 100 grams of a (10% Fe) ferric nitrate solution. Once in solution, 82 grams of the compound produced in Example 10 was added.
In 25 ml of water, 20 ml of a 1.8M ferric nitrate was added. Once in solution, 30 ml of the diethanolsuccinamide amino ethanol solution produced in Example 17 was added and the pH of the blend was adjusted to 9.2. Then 1 gram of potassium phosphate was added to the mixture.
Five drops of 1.8 M ferric nitrate were added to one liter of water and mechanically blended. Then 10 grams of potassium phosphate were added to the solution and allowed to form insoluble potassium salts.
In 400 ml of water, 20 ml of a 10% ferric nitrate solution were added, and 20 ml of the product from example 25 were added. With mechanical stirring, 40 grams of monopotassium phosphate was added the mix. The pH of the solution was then adjusted to 2 with HCl. The pH of the solution was then gradually raised with the addition of base to a pH of 10.
In 400 ml of water, 10 ml of 1.8 M ferric nitrate solution were added and 20 ml of the product from example 28 were added. With mechanical stirring, 20 grams of monopotassium phosphate was added to the mix. The pH of the solution was then adjusted to 2 with HCL. The pH of the solution was then gradually raised with the addition of Monoethanolamine to a pH of 10.
To a beaker containing one liter of water, 20 grams of potassium phosphate were added to form a clear solution.
Thirty grams of 1.8 M ferric nitrate were added to 100 ml of water. The pH of the solution was lowered to 4 with phosphorous acid, and then 5 grams of Potassium phosphate were then added to the blend. Later 30 ml of the solution produced in example 29 was added.
One hundred ml of the solution prepared in Example 41 was added to 500 ml of water and blended. 10 ml of 1.8-M ferric nitrate was then added to the mixture. […] The potassium salt of maleic acid was tested as a chelating agent.
In a separate flask 20 grams of maleic anhydride were blended in 500 ml of water. Potassium hydroxide was then added to the blend to raise the pH to 10. Later ten ml of 1.8M ferric nitrate was added to the mix and 10 grams of potassium phosphate was also blended in. […] The contents of the flask were then blended again while MEA was added to the mix.

[5] = Zinc chelation, clear solution / precipitate test; format: physicochemical; conditions: 1 gram zinc sulfate in 25 ml water, 30 ml solution, pH 9.5, 1 gram potassium phosphate
Procedure: In 25 ml of water 1 gram of zinc sulfate was added. Once the zinc sulfate was in solution, 30 ml of the N,N-diethanolsuccinamide amino ethanol solution produced in Example 17 was added and the pH of the blend was adjusted to 9.5. Then 1 gram of potassium phosphate was added tho the mixture.
In a separate flask 25 ml of water, 1 gram of zinc sulfate and 1 gram of potassium phosphate were blended together. Immediately a white precipitate formed.
In 400 ml of water, 20 ml of a 17% zinc nitrate solution were added and 60 ml of the product from example 28 were added. With mechanical stirring, 40 grams of monopotassium phosphate were added to the mix. The pH of the solution was then adjusted to 2 with HCl. The pH of the solution was then gradually raised with the addition of Monoethanolamine to a pH of 9.
A nine percent chelated zinc solution was prepared by blending 50 ml of water with 22.4 grams zinc oxide. Concentrated HCl was added until the solution was clear. Once in solution, 125 grams of the compound produced in Example 10 was added. […] This chelated zinc solution is suitable for blending with phosphorus fertilizers 2-ethanolaminesuccinic-N-ethanolsuccinicamide (tri potassium salt) has the following formula: […]
Ten ml of 17% zinc solution were added to a liter of water. Later 20 grams of potassium phosphate were added and dissolved. Zinc phosphate formed a precipitate. Phosphorous acid was then added to lower the pH and clear the solution. Once clear 30 ml of the solution prepared in example 35 was added. This acidic solution, which was acidic, then remained undisturbed for a day, after which the pH was adjusted to 10 with the addition of MEA.

[6] = tested on: pepper plants; assay: IDS versus EDTA chelates applied to the soil of pepper plants, tissue analysis; format: in vivo
Procedure: Below is the protocol and tissue analysis for the soil-applied iminodisuccinate and EDTA chelated mineral salts. Treatments: Control—no fertilizer 15-30-15 (fertilizer) alone 15-30-15 plus Cu IDS […] 15-30-15 plus Mn IDS […] 15-30-15 plus Zn IDS […] The standard fertilizer contained no micronutrients. Fertilizer was Hyponex 15-30-15. Each treatment was replicated 3 times. Soil treatments were applied as 50 ml per of the dilute blend of this invention. The pepper plants were transplanted into 1-gallon containers and grown until a suitable size. Plants were treated with the soil-applied chelate. Tissue samples were taken 30 days after the soil treatment had been applied. […] One gallon of fertilizer was poured over three replications of each set in the trial.

[7] = tested on: corn seed, NCE Hybrid 5817; assay: Corn seed germination with IDS acid, root hairs; format: in vivo; conditions: 10 corn seed on germination tray, 1/10th of a gram of IDS acid, imbibed with water, day 5; control: root hairs only on short segments
Source text: A 34% tetrasodium iminodisuccinate solution was protonated with concentrated HCl and crystalized under refrigeration in a dilute water/ethanol. The crystals were then filtered out of the solution and the residual sodium chloride was rinsed from the crystals with ice water. The IDS crystals were then dried. Two sets of 10 corn seed, NCE Hybrid 5817, were then placed on germination trays. One tray had 1/10th of a gram of the IDS acid placed in the center of the tray. The seeds were then imbibed with water. The seeds germinated as expected on day 2. On day 5 the root hairs began to show on the seedlings treated with the IDS. Photos were taken. This procedure was repeated on three occasions with simular results. There were also root hairs on the control set, however, the root hairs were only on short segments of the roots. […] This would be a substantial increase in the root surface area.

O=C(CC(C(=O)[O-])N(CCO)C(CC(=O)NCCO)C(=O)[O-])NCCO.[K+].[K+] (stereo not drawn) [Example 17, diethanolsuccinicamide-amino ethanol]
appearance of blend / precipitates [1]: clear, amber in color, and free of precipitates
appearance of solution / precipitates ([2]; 2 grams calcium chloride dihydrate in 200 ml water, 20 ml solution, pH 9): a clear solution free of precipitates
calcium phosphate precipitate formation ([2]; same solution lowered to a pH of 5.5, phosphate salts added): without calcium phosphate precipitate formation
appearance of blend / precipitates [3]: clear, dark blue and free of precipitates
appearance of blend / precipitates [4]: clear, dark ruby red and free of precipitates
appearance of blend / precipitates [5]: clear, yellow, and free of precipitates

O=C(O)CC(NC(CC(=O)O)C(=O)O)C(=O)O (stereo not drawn) [IDS, iminodisuccinic acid]
copper in tissue, TREATED ([6]; soil applied with 15-30-15, tissue 30 days after treatment, control 8.0): 10.8
TREATED (dry weight) ([6]; soil applied, control 4.8): 6.4
TREATED DRY ([6]; soil applied, dry weight, CONTROL DRY 4.8): 6.8
copper in tissue, TREATED ADJUSTED ([6]; soil applied, tissue level times dry weight, control adjusted 38.08): 68.79
copper in tissue, CHANGE IN (adjusted) ([6]; soil applied, treated adjusted minus control adjusted 38.08): 30.72
CHANGE IN WEIGHT ([6]; soil applied, treated dry minus control dry 4.8): 2.09
copper in tissue, % CHANGE (adjusted) ([6]; soil applied, versus control adjusted 38.08): 81%
% CHANGE (dry weight) ([6]; soil applied, versus control dry 4.8): 44%
root hairs on seedlings [7]: root hairs appear along the entire length of radical and lateral roots
